Entries after “also recorded” stand apart in the source; their conditions may differ.
Tests used:
[1] = system: LRRC54 gene; experiment: LRRC54 (non-genomic gene) mRNA expression, qPCR; conditions: MCF-7 cells; 1 μM PaPE or 10 nM E2 for 4 h where stated; versus vehicle, E2 or compound 2
Description: (§2) Quantitation of signal intensities is shown in panel at the right.

[2] = system: PgR gene; experiment: PgR (genomic gene) mRNA expression, qPCR; conditions: MCF-7 cells; 1 μM PaPE or 10 nM E2 for 4 h where stated; versus vehicle or E2
Description: as §2

[3] = target: T1, purified full-length human ERα (Homo sapiens, UniProt P03372); experiment: competitive radiometric binding assay, relative binding affinity (RBA); conditions: relative to estradiol = 100
T1 construct: using purified full-length human ERα and ERβ
T1 sequence (P03372 1-595): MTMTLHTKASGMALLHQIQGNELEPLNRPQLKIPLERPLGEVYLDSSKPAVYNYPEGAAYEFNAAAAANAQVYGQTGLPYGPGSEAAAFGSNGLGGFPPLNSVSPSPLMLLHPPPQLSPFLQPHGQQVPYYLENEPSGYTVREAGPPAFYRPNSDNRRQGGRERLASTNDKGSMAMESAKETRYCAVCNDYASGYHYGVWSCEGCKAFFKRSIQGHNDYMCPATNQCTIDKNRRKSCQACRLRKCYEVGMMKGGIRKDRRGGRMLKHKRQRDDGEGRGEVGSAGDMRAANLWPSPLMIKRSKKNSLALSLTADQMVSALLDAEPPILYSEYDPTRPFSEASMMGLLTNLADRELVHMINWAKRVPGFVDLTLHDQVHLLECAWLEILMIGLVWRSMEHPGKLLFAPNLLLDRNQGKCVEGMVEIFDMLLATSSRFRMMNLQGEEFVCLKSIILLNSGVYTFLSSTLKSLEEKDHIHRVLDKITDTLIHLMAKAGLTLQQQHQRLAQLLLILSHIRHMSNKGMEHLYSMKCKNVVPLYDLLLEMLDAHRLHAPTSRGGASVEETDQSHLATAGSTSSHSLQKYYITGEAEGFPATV
Description: (§1) FIG. 1. […] […]

[4] = target: T2, purified full-length human ERβ (Homo sapiens, UniProt Q92731); experiment: as above; conditions: relative to estradiol = 100
T2 construct: using purified full-length human ERα and ERβ
T2 sequence (Q92731 whole entry): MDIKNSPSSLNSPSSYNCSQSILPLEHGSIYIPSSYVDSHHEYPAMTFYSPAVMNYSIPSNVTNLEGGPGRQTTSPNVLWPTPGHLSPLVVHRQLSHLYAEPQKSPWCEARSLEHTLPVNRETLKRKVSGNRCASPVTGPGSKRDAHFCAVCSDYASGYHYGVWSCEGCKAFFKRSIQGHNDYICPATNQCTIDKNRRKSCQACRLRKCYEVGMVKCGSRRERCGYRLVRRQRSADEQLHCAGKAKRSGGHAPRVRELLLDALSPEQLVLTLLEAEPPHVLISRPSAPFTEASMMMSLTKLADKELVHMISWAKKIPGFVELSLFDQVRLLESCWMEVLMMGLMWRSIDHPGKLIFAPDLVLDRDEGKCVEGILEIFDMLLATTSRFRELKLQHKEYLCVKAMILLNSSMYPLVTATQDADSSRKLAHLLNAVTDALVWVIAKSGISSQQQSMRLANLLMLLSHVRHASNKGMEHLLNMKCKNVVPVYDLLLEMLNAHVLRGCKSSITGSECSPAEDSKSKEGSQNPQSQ
Description: as §1

[5] = system: eNOS; experiment: eNOS activation in primary endothelial cells (14C-L-arginine to 14C-L-citrulline); assay type: cell-based, bovine; conditions: 15 min; 10 nM ligand (FIG. 9E)
[6] = system: LRRC54 gene vs PgR gene; experiment: preferential activation of non-genomic (LRRC54) over genomic (PgR) gene; conditions: relative to activation by E2
[7] = system: MCF-7 cells; experiment: oleic acid (OA)-induced MCF-7 cell proliferation, WST1; conditions: 100 nM OA, agent 1 μM, 6 days
Description: Screening of FFAs for stimulating effects on cell proliferation. […] FFA mix contains all the single free fatty acids tested in this experiment. Lipid mix (mixture of cholesterol and fatty acids) was purchased from Sigma. Six replicates were used in each assay, and the experiment was repeated twice. […] Mean±SEM is plotted.
(D) OA effect on MCF-7 cell proliferation with and without PaPE-1. Dose-response of OA on cell proliferation was tested alone or in combination with and without PaPE-1 (1 μM) for 6 days before WST1 assay. The experiment has six technical replicates and was repeated twice. A two-way analysis of variance (ANOVA) model was fitted to assess the contribution of OA dose and inhibitor (Ctrl, and PaPE-1) treatment on MCF-7 cell proliferation. When the main effects were statistically significant at α=0.05, pairwise t-tests with a Bonferroni correction were employed to identify if treatment were statistically different from each other. **** p<0.0001. Mean±SEM is plotted. […] In the above cell proliferation experiments, MCF-7 cells were treated in whole growth medium adding the designated compounds. The treatment went for 6 days and OD at 450 was measured by WST1 assay. […] The experiment is repeated twice. A two-way analysis of variance (ANOVA) model was fitted to assess the contribution of ligand (Veh or OA) and inhibitor (Ctrl, 4-OH-Tam, Fulv, RAD001 and PaPE-1) treatment on MCF-7 cell proliferation. When the main effects were statistically significant at α=0.05, pairwise t-tests with a Bonferroni correction were employed to identify if treatment were statistically different from each other. **** p<0.0001. Mean±SEM is plotted. […] The MCF-7 cells were treated with Veh, 1 μM 4-OH-tam, 1 μM Fulv, and 1 μM PaPE-1 for six days before WST-1 assay in serum from 63 obese individuals (Left) and in standard cell culture (Right).

ERα RBA (relative binding affinity) [3] | ERβ RBA (relative binding affinity) [4] | Structure (SMILES) | LRRC54 (non-genomic gene) mRNA expression, in words [1] | PgR (genomic gene) mRNA expression, in words [2] | eNOS / NOS activity [5] | preference for activation of the non-genomic pathway (LRRC54 over PgR), in words [6] | OA-induced MCF-7 cell proliferation with added agent [7]
0.001 ± 0 | 0.002 ± 0.001 | Cc1cc(C)cc(-c2ccc3c(c2)CCC3O)c1 (stereo not drawn) [Compound 12, 5-(3,5-dimethylphenyl)-2,3-dihydro-1H-inden-1-ol] | some non-genomic activity | strongly stimulate the genomic gene PgR | – | – | –
0.002 ± 0.001 | 0.005 ± 0.003 | Cc1cc(-c2ccc(C(C)O)cc2)cc(C)c1O (stereo not drawn) [Compound 15, 4′-(1-hydroxyethyl)-3,5-dimethyl-[1,1′-biphenyl]-4-ol] | – | – | increased NOS activity | some selectivity for the non-genomic gene but less than that of compound 2 | –
0.002 ± 0.001 | 0.004 ± 0.003 | Cc1cc(-c2ccc3c(c2)CCCC3O)cc(C)c1O (stereo not drawn) [Compound 16, 6-(4-hydroxy-3,5-dimethylphenyl)-1,2,3,4-tetrahydronaphthalen-1-ol] | – | – | increased NOS activity | some selectivity for the non-genomic gene but less than that of compound 2 | –
0.005 ± 0.001 | 0.004 ± 0 | Cc1cc(-c2cccc(CO)c2)cc(C)c1O [Compound 24] | – | slight higher than the vehicle level | – | – | –
<0.001 | 0.002 ± 0.001 | Cc1cc(-c2cc(C)c(O)c(C)c2)ccc1CO [Compound 26] | – | slight higher than the vehicle level | – | – | –
0.003 ± 0.001 | 0.003 ± 0 | Cc1cc(-c2ccc(CO)c(C(F)(F)F)c2)cc(C)c1O [Compound 27] | – | slight higher than the vehicle level | – | – | –
0.002 ± 0.001 | 0.002 ± 0.001 | COC1CC(O)c2ccc(-c3cc(C)c(O)c(C)c3)cc21 (stereo not drawn) [Compound 30] | elevated both genomic and nongenomic gene expression to a higher level than does its parent compound 29 | elevated both genomic and nongenomic gene expression to a higher level than does its parent compound 29 | – | – | –
0.005 ± 0.001 | 0.190 ± 0.04 | Oc1ccc(-c2ccc3c(c2)CCC3O)cc1 (stereo not drawn) [Compound 32] | – | stimulate PgR gene expression at a level close to that of E2 | – | – | –
0.001 | 0.001 | Cc1cc(-c2cccc(CCO)c2)cc(C)c1O [Compound 44, 3′-(2-hydroxyethyl)-3,5-dimethyl-[1,1′-biphenyl]-4-ol] | preferentially stimulate LRRC54 better than E2 | – | – | – | –
0.001 | 0.002 | Cc1cc(-c2ccc(CCO)cc2)cc(C)c1O [Compound 45, 4′-(2-hydroxyethyl)-3,5-dimethyl-[1,1′-biphenyl]-4-ol] | preferentially stimulate LRRC54 better than E2 | – | – | – | –
0.002 | 0.004 | Cc1cc(-c2ccc3c(c2)CCC3O)ccc1O (stereo not drawn) [Compound 55, 5-(4-hydroxy-3-methylphenyl)-2,3-dihydro-1H-inden-1-ol] | – | stimulated two fold greater than that with E2 | – | – | –
<0.001 | <0.001 | Cc1cc(-c2ccc3c(c2)CCC3O)cc(CO)c1O (stereo not drawn) [Compound 56, 5-(4-hydroxy-3-(hydroxymethyl)-5-methylphenyl)-2,3-dihydro-1H-inden-1-ol] | increases the expression of the non-genomic LRRC54 gene | – | – | considerable non-genomic gene selectivity | –
– | – | OCc1cc(-c2ccc3c(c2)CCC3O)ccc1O (stereo not drawn) [Compound 57, 5-(4-hydroxy-3-(hydroxymethyl)phenyl)-2,3-dihydro-1H-inden-1-ol] | increases the expression of the non-genomic LRRC54 gene | – | – | considerable non-genomic gene selectivity | –
– | – | Cc1cc(-c2ccc(O)c(CO)c2)cc(C)c1O [Compound 59, 3′-(hydroxymethyl)-3,5-dimethyl-[1,1′-biphenyl]-4,4′-diol] | expression level is less than for compound 2 | – | – | selective expression of the non-genomic LRRC54 gene compared to E2 | –
<0.001 | ~0.001 | Cc1cc(-c2ccc(CO)c(O)c2)cc(C)c1O [Compound 60, 4-(hydroxymethyl)-3′,5′-dimethyl-[1,1′-biphenyl]-3,4′-diol] | expression level is less than for compound 2 | – | – | selective expression of the non-genomic LRRC54 gene compared to E2 | –
0.005 | 0.006 | Oc1c(Cl)cc(-c2ccc3c(c2)CCC3O)cc1Cl (stereo not drawn) [Compound 63, 5-(3,5-dichloro-4-hydroxyphenyl)-2,3-dihydro-1H-inden-1-ol] | two-fold less than that of compound 2 | – | – | stimulates the non-genomic gene LRRC54 selectively | –
– | – | OCc1cc(-c2cc(Cl)c(O)c(Cl)c2)ccc1O [Compound 64, 3,5-Dichloro-3′-(hydroxymethyl)-[1,1′-biphenyl]-4,4′-diol] | expression level is less than for compound 2 | – | – | selective expression of the non-genomic LRRC54 gene compared to E2 | –
– | – | CC(=O)NCCNC(=O)CCC(C)(c1ccc(O)cc1)c1ccc(O)cc1 [PaPE-4, Diphenolic acid-NHEtNHAc] | – | – | increased NOS activity | – | –
– | – | CO[C@H]1C[C@@H]2CC[C@@H](C)[C@@](O)(O2)C(=O)C(=O)N2CCCC[C@H]2C(=O)O[C@H]([C@H](C)C[C@@H]2CC[C@@H](OCCO)[C@H](OC)C2)CC(=O)[C@H](C)/C=C(\C)[C@@H](O)[C@@H](OC)C(=O)[C@H](C)C[C@H](C)/C=C/C=C/C=C/1C [RAD001] | – | – | – | – | blocked OA-induced cell proliferation; also recorded: suppressed
– | – | O=C(c1ccc(OCCN2CCCCC2)cc1)c1c(-c2ccc(O)cc2)sc2cc(O)ccc12 [Raloxifene, reference compound] | blocks expression of both the non-genomic LRRC54 and genomic PgR genes | blocks expression of both the non-genomic LRRC54 and genomic PgR genes | – | Neither Raloxifene (RAL) nor hydroxytamoxifen (TOT) show selective activation of the non-genomic gene LRRC54 | –

From patent US10703698B2, “Compounds which activate estrogen receptors and compositions and methods of using the same” (The Board of Trustees of the University of Illinois, priority 2016, dated 2020)
